The source of these data is patent US20240252437A1, “Methods For and Products From Encapsulation of Drugs in Nanoparticles in a Microgravity Environment” (Aphios Corporation, priority 2021, published 2024).

The test system of one test is α-secretase. The test can be described thus: HEK-293e cell model for APP processing: sAPP-α release by alkaline phosphatase absorbance at 620 nm (Earth). The format is cell-based, human. The note with it: for release of sAPP-α (increase in absorbance at 620 nm): HEK-293e cells stimulated for 24 h at 10^−8M, n=3. The protocol:
The HEK-293e cell line was optimized for studying α-secretase in vitro.
HEK-293e cells are grown to confluency in T75 dishes in DMEM (Dulbecco's Modified Eagle Medium) and 10% FCS (Fetal Calf Serum) with 2 mM L-glutamine and pen-strepamphotericin. Supplements are needed to maintain plasmid expression: (1) Hygromycin stock solution=100× solution=4 mg/mL, final concentration=40 μg/mL (50 mg/12.5 mL makes 4 mg/mL); (2) Puromycin stock solution=100× solution=30 μg/mL stock, final concentration=0.3 μg/mL. Wait for 24-48 hours. All studies used phenol Red Free DMEM medium with 2% FCS. This must be heated to 65° C. for 30 minutes to inactivate endogenous alkaline phosphatase and cooled prior to making up test solutions.
For test solutions, remove 10% FCS growth medium and replace with 1 mL phenol red free DMEM medium+2% FCS per tube (various drug concentrations and control), and freeze cells in cryotubes. Thaw cryotubes and then: (1) Incubate cells at 37° C. for different time points; (2) Centrifuge tube at 1×g for 5 minutes and refreeze tubes to isolate culture supernatants; (3) Thaw tubes and transfer supernatants to new tube: (4) Make up substrate—Phos Blue (KPL Cat #50-88-00) according to manufacturer's instructions; (5) Transfer 100 µL of each sample and add 100 μL of substrate to 96 well plates; (6) Read immediately—record absorbance at 620 nm; and (7) Reacts quickly so record absorbance every 15 minutes for 60 minutes.
After freezing Bryosomes™, HEK-293e cells and cell culture media at −80 °C and thawing after 1, 3, 6 and 16 hours, the samples were analyzed for α-secretase production (FIG. 3). […] Thus, the concentration of 10^−8 M Bryosomes™ after mixing was targeted for the Space mission.

The target in a further test is T1, PKC-ε (Homo sapiens, UniProt Q02156).
T1 sequence (Q02156 1-737): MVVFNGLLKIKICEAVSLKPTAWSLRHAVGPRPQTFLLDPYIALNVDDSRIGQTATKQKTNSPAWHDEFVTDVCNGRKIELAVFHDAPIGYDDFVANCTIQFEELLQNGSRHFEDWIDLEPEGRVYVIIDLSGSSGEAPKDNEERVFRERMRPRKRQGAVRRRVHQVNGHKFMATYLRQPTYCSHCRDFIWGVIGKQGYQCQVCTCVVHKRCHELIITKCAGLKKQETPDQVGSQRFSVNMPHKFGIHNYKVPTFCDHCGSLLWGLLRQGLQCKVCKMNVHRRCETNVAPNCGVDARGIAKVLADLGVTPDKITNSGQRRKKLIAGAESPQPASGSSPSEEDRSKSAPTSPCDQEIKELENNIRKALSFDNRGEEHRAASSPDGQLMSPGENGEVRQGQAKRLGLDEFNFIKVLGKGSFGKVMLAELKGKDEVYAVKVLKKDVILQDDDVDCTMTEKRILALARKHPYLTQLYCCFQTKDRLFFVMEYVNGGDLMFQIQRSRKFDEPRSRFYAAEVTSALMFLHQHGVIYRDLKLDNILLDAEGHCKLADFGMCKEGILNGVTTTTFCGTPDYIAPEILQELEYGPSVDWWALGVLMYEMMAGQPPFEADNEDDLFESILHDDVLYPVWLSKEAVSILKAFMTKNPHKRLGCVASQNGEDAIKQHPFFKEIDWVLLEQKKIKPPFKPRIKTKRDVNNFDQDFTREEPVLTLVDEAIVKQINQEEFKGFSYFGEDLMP
The note with it: in vitro studies (Yi et al., 2012); cited from earlier work.

For the next test, the system named is AD-transgenic mice. The note with it: intranasally-active and orally active (Schrott et al., 2015); cited from earlier work.

For `CCC/C=C/C=C/C(=O)O[C@H]1/C(=C/C(=O)OC)C[C@H]2C[C@H]([C@@H](C)O)OC(=O)C[C@H](O)C[C@@H]3C[C@H](OC(C)=O)C(C)(C)[C@](O)(C[C@@H]4C/C(=C/C(=O)OC)C[C@H](/C=C/C(C)(C)[C@]1(O)O2)O4)O3` [Bryostatin-1], the “release of sAPP-α (increase in absorbance at 620 nm)” value is given as “significantly increased” in the test on α-secretase and “strongly induces” in the test on α-secretase (listed as Bryostatin-I). Also, in the test with α-secretase (HEK-293e cells, concentrations lower than 10^−8M), the “release of sAPP-α” value was “do not affect release”. Further, the “activation of PKC-ε isoform” value on PKC-ε is given as “activate”. Also, the cognitive performance entry in the test with AD-transgenic mice is “rapidly restores cognitive performance”.
